Consider 21 molecules from patent publication US10736320B2, “Pesticidally active polycyclic derivatives with 5-membered sulfur containing heterocyclic ring systems” (Syngenta Participations AG, priority 2015, dated 2020).

As usually defined, the mortality is the share of the test organisms that died. The term melting point denotes the temperature of the solid-liquid transition.

Some results are limits rather than exact numbers.

The test system of data set [1] is Diabrotica balteata (corn root worm). The data set can be described thus: Insecticidal action against Diabrotica balteata (corn root worm), sprayed maize sprouts. In kind it is in vivo. The following applies: 96 h, application rate of 200 ppm, L2 larvae, 4 days after infestation. The procedure:
Maize sprouts, placed on an agar layer in 24-well microtiter plates were treated with aqueous test solutions prepared from 10,000 ppm DMSO stock solutions by spraying. After drying, the plates were infested with L2 larvae (6 to 10 per well). The samples were assessed for mortality 4 days after infestation.

In data set [2] the test system is Spodoptera littoralis (Egyptian cotton leaf worm). Description: Insecticidal action against Spodoptera littoralis (Egyptian cotton leaf worm), sprayed cotton leaf discs. In kind it is in vivo. The following applies: foliar, 72 h, application rate of 200 ppm, L1 larvae, 3 days after infestation, read-out: control (at least one of mortality, anti-feedant effect, and growth inhibition). The procedure:
Cotton leaf discs were placed on agar in 24-well microtiter plates and sprayed with aqueous test solutions prepared from 10,000 ppm DMSO stock solutions. After drying the leaf discs were infested with five L1 larvae. The samples were assessed for mortality, anti-feedant effect, and growth inhibition in comparison to untreated samples 3 days after infestation. Control of Spodoptera littoralis by a test sample is when at least one of mortality, anti-feedant effect, and growth inhibition is higher than the untreated sample.

Data set [3] concerns Plutella xylostella (diamond back moth). Description: Insecticidal action against Plutella xylostella (diamond back moth), treated artificial diet. In kind it is in vivo. The following applies: 120 h, application rate of 200 ppm, L2 larvae, 5 days after infestation, read-out: effect in at least one of the two categories (mortality or growth inhibition). On the procedure:
24-well microtiter plates with artificial diet were treated with aqueous test solutions prepared from 10,000 ppm DMSO stock solutions by pipetting. After drying, the plates were infested with L2 larvae (10 to 15 per well). The samples were assessed for mortality and growth inhibition in comparison to untreated samples 5 days after infestation.

In data set [4] the test system is Myzus persicae (green peach aphid). The data set can be described thus: Insecticidal action against Myzus persicae (green peach aphid), sprayed sunflower leaf discs. In kind it is in vivo. The following applies: foliar, 144 h, application rate of 200 ppm, aphid population of mixed ages, 6 days after infestation. On the procedure: Sunflower leaf discs were placed on agar in a 24-well microtiter plate and sprayed with aqueous test solutions prepared from 10,000 ppm DMSO stock solutions. After drying, the leaf discs were infested with an aphid population of mixed ages. The samples were assessed for mortality 6 days after infestation.

Data set [5] relates to Spodoptera littoralis (Egyptian cotton leaf worm). Description: Insecticidal action against Spodoptera littoralis (Egyptian cotton leaf worm), uptake by lettuce roots from agar. The following applies: 144 h, test rate of 12.5 ppm, 6 days after infestation, read-out: effect in at least one of the three categories (mortality, anti-feedancy, or growth inhibition). In kind it is in vivo. The source says:
Test compounds were applied by pipette from 10,000 ppm DMSO stock solutions into 24-well plates and mixed with agar. Lettuce seeds were placed on the agar and the multi well plate was closed by another plate which contains also agar. After 7 days the roots have absorbed the compound and the lettuce has grown into the lid plate. The lettuce leafs were now cut off into the lid plate. Spodoptera eggs were pipetted through a plastic stencil on a humid gel blotting paper and the plate closed with it. The samples were assessed for mortality, anti-feedant effect and growth inhibition in comparison to untreated samples 6 days after infestation.

Take `CCS(=O)(=O)c1cc(C(F)(F)F)ccc1-c1nnc(-c2ccc(C(F)(F)F)nc2)s1` [Compound P1, 2-[2-ethylsulfonyl-4-(trifluoromethyl)phenyl]-5-[6-(trifluoromethyl)-3-pyridyl]-1,3,4-thiadiazole]: the mortality at 200 ppm in data set [1] and in data set [2] was at least 80% each time. Also, the percent effect (mortality or growth inhibition) at 200 ppm in data set [3] was at least 80%. For the molecule `CCSc1cc(C(F)(F)F)ccc1-c1nnc(-c2ccc(C(F)(F)F)nc2)s1` [Compound P2, 2-[2-ethylsulfanyl-4-(trifluoromethyl)phenyl]-5-[6-(trifluoromethyl)-3-pyridyl]-1,3,4-thiadiazole], the melting point lay in the range of 170 to 172 °C. In turn, `CCSc1cc(C(F)(F)F)ccc1-c1nnc(-c2cncc(C(F)(F)F)c2)s1` [Compound P3, 2-[2-ethylsulfanyl-4-(trifluoromethyl)phenyl]-5-[5-(trifluoromethyl)-3-pyridyl]-1,3,4-thiadiazole] came in with a melting point of 143 to 145 °C. Regarding `CCS(=O)(=O)c1cc(C(F)(F)F)ccc1-c1nnc(-c2cncc(C(F)(F)F)c2)s1` [Compound P4, 2-[2-ethylsulfonyl-4-(trifluoromethyl)phenyl]-5-[5-(trifluoromethyl)-3-pyridyl]-1,3,4-thiadiazole], the mortality at 200 ppm in data set [1], in data set [2] and in data set [4] was at least 80% throughout. Moreover, the percent effect (mortality or growth inhibition) at 200 ppm in data set [3] was at least 80%. The percent control (mortality, anti-feedancy or growth inhibition) at 12.5 ppm in data set [5] is at least 80%. As for `CCSc1cc(C(F)(F)F)cnc1-c1nnc(-c2cncc(C(F)(F)F)c2)s1` [Compound P5, 2-[3-ethylsulfanyl-5-(trifluoromethyl)-2-pyridyl]-5-[5-(trifluoromethyl)-3-pyridyl]-1,3,4-thiadiazole], the melting point was in the range of 151 to 153 °C. Regarding `CCS(=O)(=O)c1cc(C(F)(F)F)cnc1-c1nnc(-c2cncc(C(F)(F)F)c2)s1` [Compound P6, 2-[3-ethylsulfonyl-5-(trifluoromethyl)-2-pyridyl]-5-[5-(trifluoromethyl)-3-pyridyl]-1,3,4-thiadiazole], the mortality at 200 ppm in data set [1] and in data set [2] was at least 80% each time. Moreover, the percent effect (mortality or growth inhibition) at 200 ppm in data set [3] was at least 80%. Regarding `CCSc1cc(C(F)(F)F)ccc1-c1ncc(-c2ccc(C(F)(F)F)nc2)s1` [Compound P7, 2-[2-ethylsulfanyl-4-(trifluoromethyl)phenyl]-5-[6-(trifluoromethyl)-3-pyridyl]thiazole], in data set [3], the percent effect (mortality or growth inhibition) at 200 ppm was at least 80%. With `CCS(=O)(=O)c1cc(C(F)(F)F)ccc1-c1ncc(-c2ccc(C(F)(F)F)nc2)s1` [Compound P8, 2-[2-ethylsulfonyl-4-(trifluoromethyl)phenyl]-5-[6-(trifluoromethyl)-3-pyridyl]thiazole], the mortality at 200 ppm in data set [1] and in data set [2] was at least 80% in each case. Also, in data set [3], the percent effect (mortality or growth inhibition) at 200 ppm is at least 80%. With `CCS(=O)(=O)c1cc(C(F)(F)F)ccc1-c1ncc(-c2cncc(C(F)(F)F)c2)s1` [Compound P9, 2-[2-ethylsulfonyl-4-(trifluoromethyl)phenyl]-5-[5-(trifluoromethyl)-3-pyridyl]thiazole], the mortality at 200 ppm in data set [1] and in data set [2] was at least 80% in each case.

On to `CCS(=O)(=O)c1cc(C(F)(F)F)cnc1-c1nnc(-c2cc(C(F)(F)F)ccn2)s1` [Compound P10, 2-[3-ethylsulfonyl-5-(trifluoromethyl)-2-pyridyl]-5-[4-(trifluoromethyl)-2-pyridyl]-1,3,4-thiadiazole], for which the mortality at 200 ppm in data set [1] and in data set [2] was at least 80% in each case. Take `CCS(=O)(=O)c1cc(C(F)(F)F)cnc1-c1nccs1` [Compound P11, 2-[3-ethylsulfonyl-5-(trifluoromethyl)-2-pyridyl]thiazole]: the melting point is 110 to 112 °C. Same read-out and setting: the figure for `CCS(=O)(=O)c1cc(C(F)(F)F)cnc1-c1ncc(-c2cc(C(F)(F)F)ccn2)s1` [Compound P12, 2-[3-ethylsulfonyl-5-(trifluoromethyl)-2-pyridyl]-5-[4-(trifluoromethyl)-2-pyridyl]thiazole] is 173 to 175 °C; for `CCS(=O)(=O)c1cc(C(F)(F)F)cnc1-c1ncc(-c2ccc(C(F)(F)F)cn2)s1` [Compound P13, 2-[3-ethylsulfonyl-5-(trifluoromethyl)-2-pyridyl]-5-[5-(trifluoromethyl)-2-pyridyl]thiazole] it is 208 to 210 °C.

On to `CCS(=O)(=O)c1cc(C(F)(F)F)cnc1-c1ncc(-c2cncc(C(F)(F)F)c2)s1` [Compound P14, 2-[3-ethylsulfonyl-5-(trifluoromethyl)-2-pyridyl]-5-[5-(trifluoromethyl)-3-pyridyl]thiazole], for which the mortality at 200 ppm in data set [2] was at least 80%. The molecule `CCS(=O)(=O)c1cc(C(F)(F)F)cnc1-c1ncc(-c2ccc(C(F)(F)F)nc2)s1` [Compound P15, 2-[3-ethylsulfonyl-5-(trifluoromethyl)-2-pyridyl]-5-[6-(trifluoromethyl)-3-pyridyl]thiazole] showed a melting point of 228 to 230 °C.

`CCS(=O)(=O)c1cc(-c2ncccn2)cnc1-c1nnc(-c2cncc(C(F)(F)F)c2)s1` [Compound P16, 2-(3-ethylsulfonyl-5-pyrimidin-2-yl-2-pyridyl)-5-[5-(trifluoromethyl)-3-pyridyl]-1,3,4-thiadiazole] registered a mortality at 200 ppm in data set [1] of at least 80%. `CCS(=O)(=O)c1ccc(-c2ncccn2)nc1-c1nnc(-c2cncc(C(F)(F)F)c2)s1` [Compound P17, 2-(3-ethylsulfonyl-6-pyrimidin-2-yl-2-pyridyl)-5-[5-(trifluoromethyl)-3-pyridyl]-1,3,4-thiadiazole] came in with a mortality at 200 ppm in data set [1] of at least 80%. In addition, the percent effect (mortality or growth inhibition) at 200 ppm in data set [3] is at least 80%. Consider `CCS(=O)(=O)c1cc(C2CC2)cnc1-c1nnc(-c2cc(C(F)(F)F)ccn2)s1` [Compound P18, 2-(5-cyclopropyl-3-ethylsulfonyl-2-pyridyl)-5-[4-(trifluoromethyl)-2-pyridyl]-1,3,4-thiadiazole], for which the mortality at 200 ppm in data set [1] and in data set [2] was at least 80% throughout. Besides, in data set [3], the percent effect (mortality or growth inhibition) at 200 ppm was at least 80%. On to `CCS(=O)(=O)c1cc(C2CC2)cnc1-c1nnc(-c2cncc(C(F)(F)F)c2)s1` [Compound P19, 2-(5-cyclopropyl-3-ethylsulfonyl-2-pyridyl)-5-[5-(trifluoromethyl)-3-pyridyl]-1,3,4-thiadiazole], for which the mortality at 200 ppm in data set [1], in data set [2] and in data set [4] was at least 80% in each case. Besides, the percent effect (mortality or growth inhibition) at 200 ppm in data set [3] was at least 80%.

`CCS(=O)(=O)c1ccc(C2CC2)nc1-c1nnc(-c2cncc(C(F)(F)F)c2)s1` [Compound P20, 2-(6-cyclopropyl-3-ethylsulfonyl-2-pyridyl)-5-[5-(trifluoromethyl)-3-pyridyl]-1,3,4-thiadiazole]: the mortality at 200 ppm in data set [1] and in data set [2] was at least 80% each time. Further, in data set [3], the percent effect (mortality or growth inhibition) at 200 ppm is at least 80%. The molecule `CCS(=O)(=O)c1cc(C(F)(F)F)cnc1-c1nnc(-c2ccc(C(F)(F)F)nc2)s1` [Compound P21, 2-[3-ethylsulfonyl-5-(trifluoromethyl)-2-pyridyl]-5-[6-(trifluoromethyl)-3-pyridyl]-1,3,4-thiadiazole] showed a melting point of 193 to 195 °C.
